Laboratory results as given in ChEMBL document CHEMBL1201862, “PubChem BioAssay data set” (2004).
The source made the active and inactive calls.

Experiments:
[1] = target: T1, Ubiquitin-conjugating enzyme E2 N (Homo sapiens, UniProt P61088); type: functional
T1 sequence (P61088 whole entry): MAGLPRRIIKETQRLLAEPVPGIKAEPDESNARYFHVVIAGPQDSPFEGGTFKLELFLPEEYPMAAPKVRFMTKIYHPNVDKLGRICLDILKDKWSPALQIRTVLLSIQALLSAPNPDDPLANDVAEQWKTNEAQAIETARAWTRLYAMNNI

[2] = target: T2, CAAX prenyl protease 2 (Saccharomyces cerevisiae S288c, UniProt Q03530); type: biochemical
T2 sequence (Q03530 whole entry): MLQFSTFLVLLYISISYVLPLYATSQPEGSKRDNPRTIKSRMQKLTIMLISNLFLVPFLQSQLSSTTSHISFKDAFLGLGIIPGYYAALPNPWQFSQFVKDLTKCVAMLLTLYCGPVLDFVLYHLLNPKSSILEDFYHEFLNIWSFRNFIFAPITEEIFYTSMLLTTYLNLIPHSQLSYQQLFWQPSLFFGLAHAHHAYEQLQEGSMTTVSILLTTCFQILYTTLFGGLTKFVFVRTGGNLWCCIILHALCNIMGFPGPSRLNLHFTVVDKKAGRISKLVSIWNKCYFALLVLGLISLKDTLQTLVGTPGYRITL

[3] = target: T3, Replicative DNA helicase DnaB (Mycobacterium tuberculosis, UniProt P9WMR3); experiment: DnaB intein splicing inhibitors, dose response, biochemical, cell-free fluorescence (AID 449749); type: functional
T3 sequence (P9WMR3 whole entry): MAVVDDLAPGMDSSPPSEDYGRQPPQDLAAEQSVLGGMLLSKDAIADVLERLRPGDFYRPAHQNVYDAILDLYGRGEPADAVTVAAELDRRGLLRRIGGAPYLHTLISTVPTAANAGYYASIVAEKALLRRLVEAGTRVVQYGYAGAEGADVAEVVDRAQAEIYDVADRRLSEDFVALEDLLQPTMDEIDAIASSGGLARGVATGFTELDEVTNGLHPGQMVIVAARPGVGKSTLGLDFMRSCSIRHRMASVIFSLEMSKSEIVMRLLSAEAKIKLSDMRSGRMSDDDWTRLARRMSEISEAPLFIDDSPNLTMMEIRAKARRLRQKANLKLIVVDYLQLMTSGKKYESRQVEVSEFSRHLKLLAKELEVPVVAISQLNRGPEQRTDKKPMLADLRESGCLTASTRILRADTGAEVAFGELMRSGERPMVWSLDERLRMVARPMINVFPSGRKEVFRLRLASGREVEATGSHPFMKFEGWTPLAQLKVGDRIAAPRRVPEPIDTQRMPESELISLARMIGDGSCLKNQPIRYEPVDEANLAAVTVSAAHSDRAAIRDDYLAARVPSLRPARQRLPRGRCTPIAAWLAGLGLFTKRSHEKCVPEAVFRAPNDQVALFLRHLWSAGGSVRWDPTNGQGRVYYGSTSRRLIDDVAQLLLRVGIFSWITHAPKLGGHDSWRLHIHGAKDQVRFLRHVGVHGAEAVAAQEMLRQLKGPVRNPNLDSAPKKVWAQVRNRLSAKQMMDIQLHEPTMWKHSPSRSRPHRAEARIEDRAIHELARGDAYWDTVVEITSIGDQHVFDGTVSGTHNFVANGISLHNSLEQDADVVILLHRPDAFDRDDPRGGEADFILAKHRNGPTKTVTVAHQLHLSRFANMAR

[4] = target: T4, Bcl-2-related protein A1 (Mus musculus, UniProt Q07440); type: functional;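 note: confirmatory dose–response counterscreen on Bfl-1, used to check hits from a UBC13 polyubiquitin inhibitor campaign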
T4 sequence (Q07440 whole entry): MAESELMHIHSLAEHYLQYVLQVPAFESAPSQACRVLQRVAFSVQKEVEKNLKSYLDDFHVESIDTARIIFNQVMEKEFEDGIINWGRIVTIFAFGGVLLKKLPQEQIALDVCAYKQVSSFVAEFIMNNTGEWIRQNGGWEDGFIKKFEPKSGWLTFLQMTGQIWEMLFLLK

[5] = target: Trypsin (Sus scrofa, UniProt P00761); experiment: trypsin protease activity blockade – biochemical, quenched peptide fluorescence, cherry-pick, selectivity assay for Rce1 protease inhibitor project, dose response (AID 488789)
[6] = fluconazole-exposed Candida albicans growth modulators – fluorescence, retest, confirmation (AID 2467); type: functional, cell-based
[7] = target: Transitional endoplasmic reticulum ATPase (Homo sapiens, UniProt P55072); experiment: p97 ATPase inhibitors, dose response, biochemical (AID 1534)
[8] = target: T5, Protein RecA (Mycobacterium tuberculosis, UniProt P9WHJ3); experiment: Fluorescence Cell-Free Homogeneous Dose Retest to Identify Inhibitors of RecA-Intein Splicing Activity. [Related pubchem assays (depositor defined):AID2097, AID2223, AID489010, AID492950]; type: functional
T5 sequence (P9WHJ3 whole entry): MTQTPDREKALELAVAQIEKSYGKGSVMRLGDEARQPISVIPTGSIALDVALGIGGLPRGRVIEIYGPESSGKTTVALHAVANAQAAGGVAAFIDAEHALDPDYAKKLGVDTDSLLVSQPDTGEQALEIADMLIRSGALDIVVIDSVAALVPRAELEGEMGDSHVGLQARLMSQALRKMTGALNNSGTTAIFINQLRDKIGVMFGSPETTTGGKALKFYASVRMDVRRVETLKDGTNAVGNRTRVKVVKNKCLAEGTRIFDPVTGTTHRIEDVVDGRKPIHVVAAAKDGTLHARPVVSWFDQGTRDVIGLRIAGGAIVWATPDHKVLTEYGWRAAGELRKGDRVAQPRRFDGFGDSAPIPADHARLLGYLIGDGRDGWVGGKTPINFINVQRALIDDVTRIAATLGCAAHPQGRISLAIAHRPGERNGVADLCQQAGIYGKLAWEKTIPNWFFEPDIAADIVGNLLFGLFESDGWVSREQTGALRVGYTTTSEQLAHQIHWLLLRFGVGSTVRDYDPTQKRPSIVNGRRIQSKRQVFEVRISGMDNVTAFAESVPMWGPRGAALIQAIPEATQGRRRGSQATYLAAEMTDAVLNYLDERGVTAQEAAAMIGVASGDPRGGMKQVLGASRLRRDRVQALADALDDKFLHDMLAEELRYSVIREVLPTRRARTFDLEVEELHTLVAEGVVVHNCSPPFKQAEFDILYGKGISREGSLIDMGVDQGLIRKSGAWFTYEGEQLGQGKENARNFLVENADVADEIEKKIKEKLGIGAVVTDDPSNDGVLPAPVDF

[9] = target: T1, Ubiquitin-conjugating enzyme E2 N; type: functional; remark: listed apart in the source
[10] = tested on: INS1; experiment: INS-1E survival protection against cytokine death – cell-based, luminescence, retest, dose response (AID 449756); type: functional; conditions: Rattus norvegicus;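 note: cell death triggered by IL-1 beta plus TNF-alpha plus IFN-gamma mixture; protective hits raise ATP signal compared with cytokine alone wells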
[11] = target: T6, CAAX prenyl protease 2 (Homo sapiens, UniProt Q9Y256); experiment: inhibition of Ras-converting CAAX protease Rce1 – biochemical, yeast membranes, quenched-peptide fluorescence, cherry-pick, dose response (AID 588849)
T6 sequence (Q9Y256 whole entry): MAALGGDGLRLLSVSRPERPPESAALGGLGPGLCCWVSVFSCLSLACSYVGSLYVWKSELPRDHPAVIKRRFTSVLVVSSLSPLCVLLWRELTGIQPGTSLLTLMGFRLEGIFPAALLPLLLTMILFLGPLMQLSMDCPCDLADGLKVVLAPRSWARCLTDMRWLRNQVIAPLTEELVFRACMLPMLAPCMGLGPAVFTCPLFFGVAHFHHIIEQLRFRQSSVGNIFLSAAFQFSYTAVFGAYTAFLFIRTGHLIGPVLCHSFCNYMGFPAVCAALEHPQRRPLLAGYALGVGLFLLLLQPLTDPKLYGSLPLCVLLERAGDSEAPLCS

[12] = NIH-3T3 fibroblast cytotoxicity, dose response, cytotoxicity control, cell-based, fluorescence, Alamar Blue, secondary assay (AID 2327); type: functional;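 note: NIH-3T3 mouse fibroblasts cultured with fluconazole at 8 µg/mL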
[13] = target: Transitional endoplasmic reticulum ATPase (Homo sapiens, UniProt P55072, C522A); experiment: C522A mutant p97 ATPase inhibitors, dose response, counter-screen for p97 inhibitor project, biochemical, luminescence (AID 1544)
[14] = target: Cyclin-dependent kinase 5/CDK5 activator 1 (Homo sapiens, UniProt Q00535); experiment: blockade of human CDK5 activity – biochemical, cherry-picked samples, set 2, dose response (AID 504545)
[15] = tested on: Streptococcus; experiment: GAS UMAA2166 growth inhibition – luminescence, BacTiterGlo, counter-screen for streptokinase expression inhibitor project, dose response (AID 1915); type: functional, organism-based;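 note: potency for reduction of bacterial viability or growth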
[16] = target: T7, Streptokinase A (Streptococcus pyogenes serotype M1, UniProt P10520); experiment: viability-normalized secreted streptokinase activity reduction – plasminogen activation absorbance, OD405, dose response (AID 1914); type: functional, Streptococcus pyogenes M1 GAS;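 note: secreted streptokinase activity via plasminogen activation per viability signal from cell pellet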
T7 sequence (P10520 whole entry): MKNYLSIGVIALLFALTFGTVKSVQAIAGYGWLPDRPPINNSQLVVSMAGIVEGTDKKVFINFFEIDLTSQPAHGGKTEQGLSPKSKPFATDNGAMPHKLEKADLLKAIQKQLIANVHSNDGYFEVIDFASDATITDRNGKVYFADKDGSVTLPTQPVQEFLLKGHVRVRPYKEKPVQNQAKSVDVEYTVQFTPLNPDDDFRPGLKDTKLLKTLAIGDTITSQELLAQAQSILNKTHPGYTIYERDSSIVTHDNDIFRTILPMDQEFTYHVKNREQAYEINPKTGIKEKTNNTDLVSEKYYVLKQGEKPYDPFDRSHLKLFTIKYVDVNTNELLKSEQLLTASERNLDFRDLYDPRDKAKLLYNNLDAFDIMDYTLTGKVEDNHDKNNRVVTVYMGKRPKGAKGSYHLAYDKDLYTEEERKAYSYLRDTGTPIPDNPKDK

[17] = tested on: Streptococcus sp. 'group A'; experiment: Streptococcus pyogenes SK(-)GAS viability under kanamycin – luminescence, BacTiterGlo, confirmation, counter-screen for streptokinase expression inhibitor project, dose response (AID 1900); type: functional, organism-based
[18] = target: G-protein coupled receptor 35 (Homo sapiens, UniProt Q9HC97); experiment: inhibition of zaprinast-stimulated GPR35 beta-arrestin translocation – imaging, U2OS, beta-arrestin-GFP, zaprinast agonist, primary screen (AID 2058); type: functional;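 note: antagonist potency meaning inhibition of agonist-induced arrestin redistribution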
[19] = viability of uninfected HEp-2 cells – cell-based, HTS, cytotoxicity control for RSV inhibitor project, dose response (AID 2410); type: functional; conditions: human respiratory syncytial virus
[20] = target: Bcl-2-like protein 10 (Homo sapiens, UniProt Q9HD36); experiment: Bcl-B/TR3 peptide binding disruption – biochemical, fluorescence polarization, FITC-TR3 peptide, selectivity assay for Bfl-1 inhibitor project, primary screen (AID 748);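 note: fluorescence polarization from a fluorescein-labelled TR3 peptide binding purified Bcl-B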
[21] = target: T8, Heat shock factor protein 1 (Mus musculus, UniProt P38532); experiment: decrease of HSF1-responsive luciferase luminescence – cell-based, NIH3T3, dose retest, confirmation (AID 2382); type: functional;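 note: NIH3T3 fibroblasts with HSF1-driven luciferase reporter stressed by proteasome inhibitor MG132; luminescence from HSF1-driven luciferase expression after 8 hours of MG132 stress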
T8 sequence (P38532 whole entry): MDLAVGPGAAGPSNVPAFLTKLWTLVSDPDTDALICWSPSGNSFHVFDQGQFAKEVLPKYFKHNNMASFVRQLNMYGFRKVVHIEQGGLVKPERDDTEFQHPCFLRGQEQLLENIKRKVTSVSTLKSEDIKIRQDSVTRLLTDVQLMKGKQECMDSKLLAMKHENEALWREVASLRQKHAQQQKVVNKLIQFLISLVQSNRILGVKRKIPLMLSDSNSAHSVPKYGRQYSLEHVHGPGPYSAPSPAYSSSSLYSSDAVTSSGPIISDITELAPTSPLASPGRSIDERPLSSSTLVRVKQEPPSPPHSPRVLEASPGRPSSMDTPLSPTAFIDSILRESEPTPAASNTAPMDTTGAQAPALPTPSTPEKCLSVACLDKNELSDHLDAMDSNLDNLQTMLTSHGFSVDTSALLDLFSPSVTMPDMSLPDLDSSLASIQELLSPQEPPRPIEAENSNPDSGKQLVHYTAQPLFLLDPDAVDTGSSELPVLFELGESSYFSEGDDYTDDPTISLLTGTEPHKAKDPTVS

[22] = blockers of SFLLRN-triggered platelet ATP secretion – cell-based, human platelets, luminescence, dry powder, dose response (AID 493100); type: functional
[23] = target: Voltage-gated N-type calcium channel alpha-1B subunit/Amyloid beta A4 precursor protein-binding family A member 1 (Homo sapiens, UniProt Q00975+Q02410); experiment: disruptors of Mint-PDZ/N-type channel peptide interaction – biochemical, HTRF, set 2, SAR follow-up (AID 434980); type: functional
[24] = target: Lysosomal acid glucosylceramidase (Homo sapiens, UniProt P04062); experiment: Dose response cell-based high throughput screening assay to identify enhancers of beta-glucosidase activity. [Related pubchem assays: 784 ]; type: functional
[25] = target: Guanyl-specific ribonuclease T1 (Aspergillus oryzae (strain ATCC 42149 / RIB 40), UniProt P00651); experiment: inhibition of ribonuclease T1 activity – biochemical, fluorescence polarization, 1536-well, counter-screen for TPT1 inhibitor project, dose response (AID 2167)
[26] = target: Likely tRNA 2'-phosphotransferase (Candida albicans (strain SC5314 / ATCC MYA-2876) (Yeast), UniProt Q5A7N4); experiment: inhibition of Candida TPT1 enzyme activity – biochemical, fluorescence polarization, dose response (AID 2160)
Sequence of Likely tRNA 2'-phosphotransferase (Q5A7N4 whole entry): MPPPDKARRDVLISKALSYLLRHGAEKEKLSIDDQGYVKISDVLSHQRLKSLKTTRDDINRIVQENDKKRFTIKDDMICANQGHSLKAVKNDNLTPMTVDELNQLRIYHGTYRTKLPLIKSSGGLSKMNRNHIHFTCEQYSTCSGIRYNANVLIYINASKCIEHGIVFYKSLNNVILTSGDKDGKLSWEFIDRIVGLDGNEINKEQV

Sequence of G-protein coupled receptor 35 (Q9HC97 whole entry): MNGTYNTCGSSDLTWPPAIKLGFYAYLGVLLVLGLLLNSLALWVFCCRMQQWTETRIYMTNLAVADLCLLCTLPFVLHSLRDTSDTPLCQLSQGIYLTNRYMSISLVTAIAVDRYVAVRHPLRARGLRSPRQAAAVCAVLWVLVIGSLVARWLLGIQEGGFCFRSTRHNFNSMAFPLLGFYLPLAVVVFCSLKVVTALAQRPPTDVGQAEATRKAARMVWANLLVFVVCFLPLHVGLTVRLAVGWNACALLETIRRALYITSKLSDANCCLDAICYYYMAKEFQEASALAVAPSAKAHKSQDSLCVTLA
Sequence of Bcl-2-like protein 10 (Q9HD36 whole entry): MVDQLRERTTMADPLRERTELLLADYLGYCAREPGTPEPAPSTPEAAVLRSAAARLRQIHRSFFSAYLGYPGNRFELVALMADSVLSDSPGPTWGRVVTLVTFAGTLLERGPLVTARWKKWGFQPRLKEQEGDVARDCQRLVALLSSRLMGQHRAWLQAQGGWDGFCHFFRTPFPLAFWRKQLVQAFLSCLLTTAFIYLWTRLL
Sequence of Trypsin (P00761 whole entry): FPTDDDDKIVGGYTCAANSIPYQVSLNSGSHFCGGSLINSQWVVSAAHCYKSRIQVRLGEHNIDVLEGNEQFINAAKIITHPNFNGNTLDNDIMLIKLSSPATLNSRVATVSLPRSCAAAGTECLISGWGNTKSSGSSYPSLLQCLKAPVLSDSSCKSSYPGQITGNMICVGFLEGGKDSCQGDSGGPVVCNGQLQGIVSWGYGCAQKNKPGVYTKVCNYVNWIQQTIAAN
Sequence of Lysosomal acid glucosylceramidase (P04062 whole entry): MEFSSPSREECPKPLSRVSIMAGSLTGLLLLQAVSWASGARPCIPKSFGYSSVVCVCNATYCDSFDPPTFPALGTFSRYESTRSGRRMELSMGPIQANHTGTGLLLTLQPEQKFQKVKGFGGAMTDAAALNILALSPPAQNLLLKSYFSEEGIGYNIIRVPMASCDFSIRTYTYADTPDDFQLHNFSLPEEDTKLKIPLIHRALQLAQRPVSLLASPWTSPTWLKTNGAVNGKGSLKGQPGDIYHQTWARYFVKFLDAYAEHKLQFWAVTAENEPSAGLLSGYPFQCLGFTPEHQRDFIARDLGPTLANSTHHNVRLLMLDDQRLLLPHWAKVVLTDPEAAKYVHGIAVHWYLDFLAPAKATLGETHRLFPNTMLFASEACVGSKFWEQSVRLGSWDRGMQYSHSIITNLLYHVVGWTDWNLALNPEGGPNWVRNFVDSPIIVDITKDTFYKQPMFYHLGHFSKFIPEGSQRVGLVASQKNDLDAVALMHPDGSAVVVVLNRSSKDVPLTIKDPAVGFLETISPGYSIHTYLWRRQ
Sequence of Voltage-gated N-type calcium channel alpha-1B subunit/Amyloid beta A4 precursor protein-binding family A member 1 (Q00975 whole entry): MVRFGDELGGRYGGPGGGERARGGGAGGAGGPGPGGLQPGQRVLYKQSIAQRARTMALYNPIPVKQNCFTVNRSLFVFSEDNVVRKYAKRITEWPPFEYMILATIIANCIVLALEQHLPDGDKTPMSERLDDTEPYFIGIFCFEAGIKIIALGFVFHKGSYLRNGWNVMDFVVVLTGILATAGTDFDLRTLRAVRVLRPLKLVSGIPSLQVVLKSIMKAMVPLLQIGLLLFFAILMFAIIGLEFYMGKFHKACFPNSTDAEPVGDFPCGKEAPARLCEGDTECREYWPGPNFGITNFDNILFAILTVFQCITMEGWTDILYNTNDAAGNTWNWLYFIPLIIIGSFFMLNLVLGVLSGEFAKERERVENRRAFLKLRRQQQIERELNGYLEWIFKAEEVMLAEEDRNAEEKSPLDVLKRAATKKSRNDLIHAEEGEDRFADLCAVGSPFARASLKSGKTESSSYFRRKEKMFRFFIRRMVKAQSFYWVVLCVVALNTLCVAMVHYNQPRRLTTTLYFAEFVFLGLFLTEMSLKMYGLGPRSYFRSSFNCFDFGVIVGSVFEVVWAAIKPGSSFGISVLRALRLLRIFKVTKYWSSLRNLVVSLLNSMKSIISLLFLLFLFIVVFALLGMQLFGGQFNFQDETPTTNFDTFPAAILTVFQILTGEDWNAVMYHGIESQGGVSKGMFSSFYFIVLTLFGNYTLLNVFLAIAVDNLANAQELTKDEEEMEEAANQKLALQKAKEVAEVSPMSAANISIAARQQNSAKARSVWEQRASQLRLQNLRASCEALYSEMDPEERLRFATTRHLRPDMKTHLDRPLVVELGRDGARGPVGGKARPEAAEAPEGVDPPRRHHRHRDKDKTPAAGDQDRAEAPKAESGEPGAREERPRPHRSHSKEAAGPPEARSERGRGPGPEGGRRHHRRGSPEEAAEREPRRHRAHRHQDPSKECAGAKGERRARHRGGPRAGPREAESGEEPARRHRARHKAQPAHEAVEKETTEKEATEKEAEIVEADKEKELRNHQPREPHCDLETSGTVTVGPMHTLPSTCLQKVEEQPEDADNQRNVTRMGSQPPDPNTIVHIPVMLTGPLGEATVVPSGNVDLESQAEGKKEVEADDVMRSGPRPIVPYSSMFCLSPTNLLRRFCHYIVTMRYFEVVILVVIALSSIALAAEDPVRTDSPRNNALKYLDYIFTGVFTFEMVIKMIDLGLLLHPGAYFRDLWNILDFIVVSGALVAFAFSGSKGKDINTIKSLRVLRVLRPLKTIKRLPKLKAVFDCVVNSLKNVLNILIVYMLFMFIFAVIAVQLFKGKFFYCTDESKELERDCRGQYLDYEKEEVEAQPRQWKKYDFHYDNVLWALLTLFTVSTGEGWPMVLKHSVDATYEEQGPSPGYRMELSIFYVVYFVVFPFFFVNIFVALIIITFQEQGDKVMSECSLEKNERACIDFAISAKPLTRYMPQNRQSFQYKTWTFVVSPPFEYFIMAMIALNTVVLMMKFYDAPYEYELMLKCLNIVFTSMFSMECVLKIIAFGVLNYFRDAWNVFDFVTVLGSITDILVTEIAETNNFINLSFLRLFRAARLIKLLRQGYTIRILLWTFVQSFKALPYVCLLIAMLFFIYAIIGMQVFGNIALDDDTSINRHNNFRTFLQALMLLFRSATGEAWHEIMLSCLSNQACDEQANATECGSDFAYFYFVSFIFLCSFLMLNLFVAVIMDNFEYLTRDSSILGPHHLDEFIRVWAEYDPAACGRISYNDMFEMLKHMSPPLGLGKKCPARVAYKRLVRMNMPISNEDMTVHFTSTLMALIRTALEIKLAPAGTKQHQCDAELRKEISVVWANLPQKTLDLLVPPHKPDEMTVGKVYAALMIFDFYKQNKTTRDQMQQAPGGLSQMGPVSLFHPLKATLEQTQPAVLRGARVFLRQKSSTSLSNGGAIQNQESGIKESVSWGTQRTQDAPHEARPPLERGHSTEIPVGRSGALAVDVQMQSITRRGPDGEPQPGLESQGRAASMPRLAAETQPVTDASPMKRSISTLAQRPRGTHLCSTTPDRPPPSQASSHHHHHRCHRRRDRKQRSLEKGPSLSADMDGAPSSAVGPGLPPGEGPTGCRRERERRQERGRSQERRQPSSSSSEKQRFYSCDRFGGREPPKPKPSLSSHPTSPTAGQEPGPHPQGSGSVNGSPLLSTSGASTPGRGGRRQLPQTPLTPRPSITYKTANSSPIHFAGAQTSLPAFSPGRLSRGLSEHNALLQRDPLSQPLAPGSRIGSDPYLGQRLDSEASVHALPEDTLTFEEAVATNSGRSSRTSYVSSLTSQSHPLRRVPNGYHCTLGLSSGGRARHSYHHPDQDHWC
Sequence of Voltage-gated N-type calcium channel alpha-1B subunit/Amyloid beta A4 precursor protein-binding family A member 1 (Q02410 whole entry): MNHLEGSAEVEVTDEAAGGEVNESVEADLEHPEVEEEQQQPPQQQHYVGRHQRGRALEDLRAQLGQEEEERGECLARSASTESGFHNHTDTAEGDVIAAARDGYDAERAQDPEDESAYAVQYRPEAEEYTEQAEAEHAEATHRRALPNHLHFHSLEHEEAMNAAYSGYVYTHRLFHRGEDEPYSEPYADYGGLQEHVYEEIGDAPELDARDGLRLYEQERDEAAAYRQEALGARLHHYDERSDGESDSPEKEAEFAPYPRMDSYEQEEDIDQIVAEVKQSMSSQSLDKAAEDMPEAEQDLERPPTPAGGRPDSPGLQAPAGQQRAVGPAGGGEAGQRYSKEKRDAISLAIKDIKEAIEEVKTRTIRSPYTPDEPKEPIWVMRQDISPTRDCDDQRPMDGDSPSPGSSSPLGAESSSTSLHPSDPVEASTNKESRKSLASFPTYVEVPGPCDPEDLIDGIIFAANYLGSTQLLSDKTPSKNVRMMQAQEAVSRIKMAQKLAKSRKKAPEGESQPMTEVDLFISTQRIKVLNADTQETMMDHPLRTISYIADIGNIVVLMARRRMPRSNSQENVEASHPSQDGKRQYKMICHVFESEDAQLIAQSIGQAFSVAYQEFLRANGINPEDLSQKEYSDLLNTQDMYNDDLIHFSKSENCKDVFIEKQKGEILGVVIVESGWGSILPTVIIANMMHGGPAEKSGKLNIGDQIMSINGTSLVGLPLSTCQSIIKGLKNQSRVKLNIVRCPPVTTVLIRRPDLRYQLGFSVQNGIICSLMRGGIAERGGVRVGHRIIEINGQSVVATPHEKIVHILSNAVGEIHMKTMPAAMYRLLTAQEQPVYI
Sequence of Guanyl-specific ribonuclease T1 (P00651 whole entry): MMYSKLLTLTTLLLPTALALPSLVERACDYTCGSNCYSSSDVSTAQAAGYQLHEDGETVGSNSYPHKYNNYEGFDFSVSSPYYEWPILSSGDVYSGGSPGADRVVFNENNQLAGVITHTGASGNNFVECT

c1ccc(CNc2nc(NCc3ccccc3)c3ccccc3n2)cc1
IC50 [1]: 19.6 µM (active)
AC50 [2]: 39.5 µM (active)
AC50 [3]: 6.13 µM (active)
IC50 [4]: 12.4 µM (active)
AC50 [5]: 13.6 µM (active)
EC50 [6]: > 38 µM (not active)
IC50 [7]: > 50 µM (not active)
EC50 [8]: 7.83 µM (active)
IC50 [9]: 11 µM (active)
AC50 [10]: 7.6 µM (active)
AC50 [11]: 9.69 µM (active)
EC50 [12]: > 150 µM (inconclusive)
IC50 [13]: > 50 µM (not active)

C=CCNC(=O)c1[nH]nc2c1CC(C(C)(C)CC)CC2 (stereo unspecified)
AC50 [14]: 3.18 µM (active)

CCOc1ccc(/C=N/NC(=O)Cc2csc(Nc3cccc(C(F)(F)F)c3)n2)cc1
EC50 [15]: 20.2 µM (active)
EC50 [16]: 20.1 µM (active)
EC50 [17]: 8.02 µM (active)
IC50 [18]: 2.1 µM (active)
CC50 [19]: 12.2 µM (active)

COc1ccc(NC(=O)c2cc(CN3C(=O)c4ccccc4C3=O)ccc2OC)cn1
IC50 [20]: > 25 µM (inactive)
EC50 [21]: > 195 µM (not active)

O=C(N/N=C/c1ccc(NC(=O)C(F)(F)F)cc1)C1CCCC1
AC50 [22]: 22.3 µM (active)

O=C(c1cc(-c2ccco2)nc2ccccc12)N1CCc2cccnc21
IC50 [23]: > 56.8 µM (inactive)

COc1ccc(OC)c(Nc2nc(-c3sc(N)nc3C)cs2)c1
EC50 [24]: > 50 µM (not active)

Cc1ccc(OCCn2cccc2/C=C2/C(=O)NC(=O)N(Cc3ccco3)C2=O)cc1
IC50 [25]: > 55.7 µM (not active)
IC50 [26]: > 55.7 µM (not active)
